Laboratory results: ChEMBL document CHEMBL3885861, “Open TG-GATES”

Species on record: Rattus norvegicus
Assay: Open TG-GATES - Regimen: Single
Format: toxicity, organism-based, Sprague-Dawley
Design: regimen Single, gender Male, age 6 weeks
Settings: in vivo, po, 100 mg/kg, route gavage, dose level Low; for APTT / Bas / Eos / Fbg / Hb / Ht / Lym / MCH / MCHC / MCV / Mono / Neu / PT / Plat / RBC / Ret / WBC: tissue Blood; for KIDNEY_L / KIDNEY_R / KIDNEY_TOTAL: tissue Kidney; for LIVER: tissue Liver; for A/G / ALP / ALT / AST / BUN / CRE / Ca / Cl / DBIL / GLC / IP / K / LDH / Na / PL / RALB / TBIL / TC / TG / TP / gamma-GTP: tissue Plasma

CC(C)(S)[C@@H](N)C(=O)O [PENICILLAMINE]
TERMINAL_BW (3 h): 201.7 g | APTT (3 h): 15.4 s | Bas (3 h): 0% | Eos (3 h): 1% | Fbg (3 h): 283 mg/dL | Hb (3 h): 13.5 g/dL | Ht (3 h): 41.8% | Lym (3 h): 79.2% | MCH (3 h): 20.5 pg | MCHC (3 h): 32.4% | MCV (3 h): 63.4 fL | Mono (3 h): 2.8% | Neu (3 h): 16.4% | PT (3 h): 15 s | Plat (3 h): 118.1 x10_4/uL | RBC (3 h): 659.6 x10_4/ul | Ret (3 h): 9.3% | WBC (3 h): 78.7 x10_2/uL | KIDNEY_L (3 h): 0.9 g | KIDNEY_R (3 h): 0.9 g | KIDNEY_TOTAL (3 h): 1.8 g | LIVER (3 h): 8.7 g | A/G (3 h): 1 | ALP (3 h): 1342 IU/L | ALT (3 h): 42.6 IU/L | AST (3 h): 74.4 IU/L | BUN (3 h): 9.6 mg/dL | CRE (3 h): 0.2 mg/dL | Ca (3 h): 10.8 mg/dL | Cl (3 h): 106.6 meq/L | DBIL (3 h): 0.012 mg/dL | GLC (3 h): 186.8 mg/dL | IP (3 h): 8.2 mg/dL | K (3 h): 4.3 meq/L | LDH (3 h): 61.2 IU/L | Na (3 h): 142.2 meq/L | PL (3 h): 139 mg/dL | RALB (3 h): 2.6 g/dL | TBIL (3 h): 0.036 mg/dL | TC (3 h): 74.4 mg/dL | TG (3 h): 63.6 mg/dL | TP (3 h): 5.3 g/dL | gamma-GTP (3 h): 1 IU/L | TERMINAL_BW (6 h): 200.9 g | APTT (6 h): 18.6 s | Bas (6 h): 0% | Eos (6 h): 1% | Fbg (6 h): 310 mg/dL | Hb (6 h): 13.4 g/dL | Ht (6 h): 41.5% | Lym (6 h): 74.8% | MCH (6 h): 20.6 pg | MCHC (6 h): 32.2% | MCV (6 h): 63.9 fL | Mono (6 h): 3% | Neu (6 h): 20.6% | PT (6 h): 14.7 s | Plat (6 h): 117.7 x10_4/uL | RBC (6 h): 651 x10_4/ul | Ret (6 h): 9.1% | WBC (6 h): 91.5 x10_2/uL | KIDNEY_L (6 h): 0.9 g | KIDNEY_R (6 h): 0.9 g | KIDNEY_TOTAL (6 h): 1.8 g | LIVER (6 h): 8.2 g | A/G (6 h): 0.9 | ALP (6 h): 1252 IU/L | ALT (6 h): 38 IU/L | AST (6 h): 76 IU/L | BUN (6 h): 7.2 mg/dL | CRE (6 h): 0.2 mg/dL | Ca (6 h): 10.7 mg/dL | Cl (6 h): 106.6 meq/L | DBIL (6 h): 0.01 mg/dL | GLC (6 h): 175.4 mg/dL | IP (6 h): 8.7 mg/dL | K (6 h): 4 meq/L | LDH (6 h): 63.8 IU/L | Na (6 h): 143 meq/L | PL (6 h): 138.2 mg/dL | RALB (6 h): 2.5 g/dL | TBIL (6 h): 0.038 mg/dL | TC (6 h): 78.8 mg/dL | TG (6 h): 44.6 mg/dL | TP (6 h): 5.2 g/dL | gamma-GTP (6 h): 1.2 IU/L | TERMINAL_BW (9 h): 200 g | APTT (9 h): 15.2 s | Bas (9 h): 0% | Eos (9 h): 0.8% | Fbg (9 h): 315.8 mg/dL | Hb (9 h): 13.3 g/dL | Ht (9 h): 41.2% | Lym (9 h): 78% | MCH (9 h): 20.5 pg | MCHC (9 h): 32.3% | MCV (9 h): 63.6 fL | Mono (9 h): 2.2% | Neu (9 h): 18.4% | PT (9 h): 14.3 s | Plat (9 h): 124 x10_4/uL | RBC (9 h): 647.4 x10_4/ul | Ret (9 h): 9% | WBC (9 h): 74.3 x10_2/uL | KIDNEY_L (9 h): 0.9 g | KIDNEY_R (9 h): 0.9 g | KIDNEY_TOTAL (9 h): 1.8 g | LIVER (9 h): 7.9 g | A/G (9 h): 0.9 | ALP (9 h): 1373.8 IU/L | ALT (9 h): 40 IU/L | AST (9 h): 68.6 IU/L | BUN (9 h): 9.6 mg/dL | CRE (9 h): 0.2 mg/dL | Ca (9 h): 10.7 mg/dL | Cl (9 h): 106.4 meq/L | DBIL (9 h): 0.008 mg/dL | GLC (9 h): 166.2 mg/dL | IP (9 h): 10 mg/dL | K (9 h): 4 meq/L | LDH (9 h): 54.4 IU/L | Na (9 h): 143.2 meq/L | PL (9 h): 137 mg/dL | RALB (9 h): 2.6 g/dL | TBIL (9 h): 0.034 mg/dL | TC (9 h): 79.6 mg/dL | TG (9 h): 45 mg/dL | TP (9 h): 5.4 g/dL | gamma-GTP (9 h): 1.2 IU/L | TERMINAL_BW (24 h): 219.1 g | APTT (24 h): 16.6 s | Bas (24 h): 0% | Eos (24 h): 0.8% | Fbg (24 h): 272.4 mg/dL | Hb (24 h): 13 g/dL | Ht (24 h): 40% | Lym (24 h): 78.6% | MCH (24 h): 20.8 pg | MCHC (24 h): 32.4% | MCV (24 h): 64.2 fL | Mono (24 h): 2.8% | Neu (24 h): 16.8% | PT (24 h): 14.2 s | Plat (24 h): 125.3 x10_4/uL | RBC (24 h): 623.4 x10_4/ul | Ret (24 h): 8% | WBC (24 h): 90.1 x10_2/uL | KIDNEY_L (24 h): 0.9 g | KIDNEY_R (24 h): 0.9 g | KIDNEY_TOTAL (24 h): 1.9 g | LIVER (24 h): 10.4 g | A/G (24 h): 0.9 | ALP (24 h): 1649.2 IU/L | ALT (24 h): 45 IU/L | AST (24 h): 70.4 IU/L | BUN (24 h): 13.4 mg/dL | CRE (24 h): 0.2 mg/dL | Ca (24 h): 11 mg/dL | Cl (24 h): 104.4 meq/L | DBIL (24 h): 0.012 mg/dL | GLC (24 h): 178.6 mg/dL | IP (24 h): 7.9 mg/dL | K (24 h): 4 meq/L | LDH (24 h): 81.6 IU/L | Na (24 h): 143.2 meq/L | PL (24 h): 155.2 mg/dL | RALB (24 h): 2.7 g/dL | TBIL (24 h): 0.026 mg/dL | TC (24 h): 81.6 mg/dL | TG (24 h): 93.6 mg/dL | TP (24 h): 5.5 g/dL | gamma-GTP (24 h): 1 IU/L
